# Measured values: patent US20100204187A1, “Purine Derivatives” (priority 2007, published 2010)
# System: C57BL/6J mice
# Test: Delayed-type hypersensitivity response (DTH), footpad swelling after sheep red blood cell challenge (Biological Assay 2)
# Type: in vivo
# Details: administered orally (p.o. once daily during sensitization and challenge phases), male C57BL/6J mice
# Description: Delayed-Type Hypersensitivity Response (DTH)
# This assay was performed essentially as disclosed in Kudlacz E. et al, see supra. Male C57BL/6J mice received i.v. injections of 1×10^5 sheep red blood cells in a volume of 0.2 mL sterile phosphate buffered saline (PBS). Four days later, sensitized mice received an injection of 1×10^8 sheep red blood cells in a volume of 30 μL sterile PBS into the left footpad. Twenty-four hours later, animals were sacrificed and their footpads removed and weighted. The DTH swelling response was calculated by subtracting the right footpad weight (baseline) from that of the left footpad (experimental). Test compounds or vehicle (0.2% carboxymethylcellulose and 1% Tween 80 in water) were administered p.o. once daily during both sensitization and challenge phases of the DTH response. Compounds of examples 1 cc, 1cr, 1ct, 5u, 10h and 10p were active in this assay when administered orally.
row,Structure (SMILES),activity in DTH swelling response assay
1,"COc1ccc(Nc2nc(-c3ccc(NC(C)=O)cc3)c3nc[nH]c3n2)cc1S(N)(=O)=O [Example 1 cc, 6-(4-acetylamino)phenyl-2-(4-methoxy-3-aminosulfonylphenyl)amino-9H-purine]",active
2,"COc1ccc(Nc2nc(-c3cccc(S(C)(=O)=O)c3)c3nc[nH]c3n2)cc1OC [Example 1cr, 2-(3,4-dimethoxyphenyl)amino-6-(3-methanesulfonyl)phenyl-9H-purine]",active
3,CS(=O)(=O)c1cccc(-c2nc(Nc3ccc(CCO)cc3)nc3[nH]cnc23)c1 [Example 1ct],active
4,"CCCN(C)c1ccc(-c2nc(Nc3ccc(N4CCOCC4)cc3)nc3[nH]cnc23)cn1 [Example 5u, 6-[(6-N-methylpropylamino)pyridin-3-yl]-2-[4-(4-morpholino)phenyl]amino-9H-purine]",active
